Assay results reported in the NIST ThermoML archive (doi:10.1021/je050050p).
Numbers after ± are expanded uncertainties.

Experiment: xn = mol fraction of the nth substance listed
Details: Liquid, Vibrating tube method

CN(C)C=O [dimethylformamide] + O=C=O
Details | mass density [kg/m3]
352.87 K, 13027 kPa, x2 = 0.4268 | 908.06 ± 0.42
352.87 K, 13995 kPa, x2 = 0.4268 | 909.43 ± 0.42
352.87 K, 14004 kPa, x2 = 0.2876 | 910.39 ± 0.42
352.87 K, 15002 kPa, x2 = 0.4268 | 910.84 ± 0.42
352.87 K, 15013 kPa, x2 = 0.2876 | 911.48 ± 0.42
352.87 K, 16013 kPa, x2 = 0.2876 | 912.56 ± 0.42
352.87 K, 16029 kPa, x2 = 0.4268 | 912.27 ± 0.42
352.87 K, 17030 kPa, x2 = 0.4268 | 913.63 ± 0.42
352.87 K, 17044 kPa, x2 = 0.2876 | 913.64 ± 0.42
352.87 K, 18010 kPa, x2 = 0.4268 | 914.96 ± 0.42
352.87 K, 18012 kPa, x2 = 0.2876 | 914.66 ± 0.42
352.87 K, 19003 kPa, x2 = 0.4268 | 916.29 ± 0.42
352.87 K, 19015 kPa, x2 = 0.2876 | 915.7 ± 0.42
352.87 K, 20024 kPa, x2 = 0.2876 | 916.74 ± 0.42
352.87 K, 20032 kPa, x2 = 0.4268 | 917.62 ± 0.42
352.87 K, 21004 kPa, x2 = 0.2876 | 917.74 ± 0.42
352.87 K, 21047 kPa, x2 = 0.4268 | 918.93 ± 0.42
352.87 K, 22005 kPa, x2 = 0.4268 | 920.15 ± 0.42
352.87 K, 22030 kPa, x2 = 0.2876 | 918.79 ± 0.42
352.87 K, 23001 kPa, x2 = 0.4268 | 921.41 ± 0.42
352.87 K, 23027 kPa, x2 = 0.2876 | 919.77 ± 0.42
352.87 K, 24014 kPa, x2 = 0.4268 | 922.68 ± 0.42
352.87 K, 24021 kPa, x2 = 0.2876 | 920.77 ± 0.42
352.87 K, 25022 kPa, x2 = 0.2876 | 921.74 ± 0.42
352.87 K, 25024 kPa, x2 = 0.4268 | 923.93 ± 0.43
362.68 K, 13997 kPa, x2 = 0.6235 | 842.98 ± 0.45
362.68 K, 15019 kPa, x2 = 0.6235 | 847.62 ± 0.45
362.68 K, 16021 kPa, x2 = 0.6235 | 851.83 ± 0.45
362.68 K, 16992 kPa, x2 = 0.6235 | 855.82 ± 0.5
362.68 K, 18022 kPa, x2 = 0.6235 | 859.78 ± 0.46
362.68 K, 19000 kPa, x2 = 0.6235 | 863.4 ± 0.46
362.68 K, 20047 kPa, x2 = 0.6235 | 867.1 ± 0.46
362.68 K, 21057 kPa, x2 = 0.6235 | 870.49 ± 0.45
362.68 K, 22005 kPa, x2 = 0.6235 | 873.58 ± 0.45
362.68 K, 22981 kPa, x2 = 0.6235 | 876.69 ± 0.45
362.68 K, 24005 kPa, x2 = 0.6235 | 879.78 ± 0.46
362.68 K, 24998 kPa, x2 = 0.6235 | 882.71 ± 0.46
362.73 K, 18005 kPa, x2 = 0.9311 | 641.86 ± 0.66
362.73 K, 19024 kPa, x2 = 0.9311 | 662.81 ± 0.64
362.73 K, 20021 kPa, x2 = 0.9311 | 680.44 ± 0.61
362.73 K, 21028 kPa, x2 = 0.9311 | 696.02 ± 0.6
362.73 K, 22008 kPa, x2 = 0.9311 | 709.54 ± 0.58
362.73 K, 23017 kPa, x2 = 0.9311 | 722.12 ± 0.57
362.73 K, 24029 kPa, x2 = 0.9311 | 733.65 ± 0.57
362.73 K, 25019 kPa, x2 = 0.9311 | 744.01 ± 0.56
362.75 K, 8032 kPa, x2 = 0.2876 | 891.2 ± 0.41
362.75 K, 9018 kPa, x2 = 0.2876 | 892.47 ± 0.41
362.75 K, 9986 kPa, x2 = 0.2876 | 893.65 ± 0.42
362.75 K, 10994 kPa, x2 = 0.2876 | 894.89 ± 0.42
362.75 K, 11002 kPa, x2 = 0.4268 | 890.57 ± 0.42
362.75 K, 12000 kPa, x2 = 0.2876 | 896.09 ± 0.42
362.75 K, 12008 kPa, x2 = 0.4268 | 892.17 ± 0.42
362.75 K, 13010 kPa, x2 = 0.4268 | 893.74 ± 0.43
362.75 K, 13037 kPa, x2 = 0.2876 | 897.35 ± 0.42
362.75 K, 14000 kPa, x2 = 0.4268 | 895.32 ± 0.43
362.75 K, 14023 kPa, x2 = 0.2876 | 898.48 ± 0.42
362.75 K, 15027 kPa, x2 = 0.4268 | 896.84 ± 0.43
362.75 K, 15039 kPa, x2 = 0.2876 | 899.66 ± 0.42
362.75 K, 16011 kPa, x2 = 0.2876 | 900.77 ± 0.42
362.75 K, 16015 kPa, x2 = 0.4268 | 898.33 ± 0.43
362.75 K, 17017 kPa, x2 = 0.4268 | 899.81 ± 0.43
362.75 K, 17019 kPa, x2 = 0.2876 | 901.92 ± 0.42
362.75 K, 18012 kPa, x2 = 0.2876 | 903.04 ± 0.42
362.75 K, 18013 kPa, x2 = 0.4268 | 901.24 ± 0.43
362.75 K, 19006 kPa, x2 = 0.2876 | 904.14 ± 0.42
362.75 K, 19024 kPa, x2 = 0.4268 | 902.72 ± 0.43
362.75 K, 20028 kPa, x2 = 0.4268 | 904.14 ± 0.43
362.75 K, 20035 kPa, x2 = 0.2876 | 905.27 ± 0.42
362.75 K, 20994 kPa, x2 = 0.2876 | 906.3 ± 0.42
362.75 K, 21039 kPa, x2 = 0.4268 | 905.51 ± 0.43
362.75 K, 22014 kPa, x2 = 0.4268 | 906.89 ± 0.43
362.75 K, 22029 kPa, x2 = 0.2876 | 907.43 ± 0.42
362.75 K, 23004 kPa, x2 = 0.2876 | 908.45 ± 0.42
362.75 K, 23027 kPa, x2 = 0.4268 | 908.24 ± 0.44
362.75 K, 24034 kPa, x2 = 0.2876 | 909.57 ± 0.42
362.75 K, 25002 kPa, x2 = 0.2876 | 910.55 ± 0.43
362.79 K, 18033 kPa, x2 = 0.8091 | 777.33 ± 0.83
362.79 K, 19005 kPa, x2 = 0.8091 | 784.9 ± 0.51
362.79 K, 20003 kPa, x2 = 0.8091 | 792.49 ± 0.5
362.79 K, 21014 kPa, x2 = 0.8091 | 799.75 ± 0.5
362.79 K, 22017 kPa, x2 = 0.8091 | 806.5 ± 0.5
362.79 K, 23043 kPa, x2 = 0.8091 | 813.1 ± 0.5
362.79 K, 24052 kPa, x2 = 0.8091 | 819.28 ± 0.49
362.79 K, 25083 kPa, x2 = 0.8091 | 825.05 ± 0.51
